# Assay results published in patent publication US9572802B2 (Theravance Respiratory Company, LLC, priority 2009, dated 2017).
# Where a name gives a salt, the structure may show the parent alone.
# Test system: methacholine (MCh)-induced bronchoconstriction
# Test: Rat Einthoven assay: bronchoprotection against methacholine (MCh)-induced bronchoconstriction
# Type: in vivo
# Conditions: 100 μg by inhalation, bronchoprotective effect present
# Procedure: This assay measures the ability of a test compound to provide bronchoprotection against methacholine (MCh)-induced bronchoconstriction in a rat. Male Sprague-Dawley rats (Harlan, Indianapolis, Ind.), weighing between 200 g and 350 g, were used for all studies. Test compound or vehicle (sterile deionized water) were dosed by inhalation (1H) over a 10 min period in a pie shaped inhalation chamber (R+S Molds, San Carlos, Calif.) using 5 mL of dosing solution. […] Rats were dosed with 100 μg of test compound unless otherwise indicated. At predetermined time points, rats were anesthetized with all intraperitoneal (IP) injection of 120 mg/kg inactin (thiobutabarbital). A supplemental dose (40 mg/kg, IP) was administered if the animal responded to physical stimuli (e.g. toe pinch). The surgical site was shaved and a 1-2 cm midline incision of the ventral aspect of the neck was made. The jugular vein was isolated and cannulated with a saline-filled polyethylene catheter (PE-50) to allow IV infusion of MCh. Trachea was dissected free and cannulated with a 14G needle (#NE-014, Small Parts, Miami Lakes, Fla.). After placement of the tracheal cannula, each rat was ventilated using a respirator (Model 683, Harvard Apparatus, Inc., Mass.) set at a stroke volume of 1 mL/100 g body weight (but not exceeding 2.5 mL volume) and a rate of 90 strokes per minute. A T-connector was placed along the respirator expiratory tubing to allow for measurement of changes in ventilation pressure (VP) using a Biopac transducer that was connected to a Biopac […]) pre-amplifier. Body temperature was maintained at 37° C. using a heating pad. Changes in VP were recorded using the Acknowledge Data Collection Software (Santa Barbara, Calif.). Baseline values were collected for at least 2.5 min. Rats were then challenged with non-cumulative intravenous (IV) infusions of 40 and 80 μg/kg MCh. MCh was infused intravenously for 2.5 minutes from a syringe pump (sp210iw, World Precision Instruments, Inc., Sarasota, Fla.) at a rate of 2 mL/kg/min, with a 2 minute interval between the two doses of MCh. Changes in ventilation pressure (cm H2O) in treated animals are expressed as % inhibition of MCh response relative to control animals. Other bronchoconstrictors, such as histamine and acetylcholine, can be used in place of MCh in this assay. Additonally, guinea pigs can be used instead of rats. […] Inhibition greater than or equal to 30 percent at 24 h is indicative of a long duration of action.
row,Structure (SMILES),Broncho. at 24 h
1,"CC(Cc1cccc(CC(=O)NCCCCN(C)C(=O)CCN2CCC(OC(=O)Nc3ccccc3-c3ccccc3)CC2)c1)NC[C@H](O)c1ccc(O)c2[nH]c(=O)ccc12 (stereo in doubt) [Compound I-23, Biphenyl-2-ylcarbamic acid 1-[2-({4-[2-(3-{(R)-2-[(R)-2-hydroxy-2-(8-hydroxy-2-oxo-1,2-dihydroquinolin-5-yl)ethylamino]propyl}phenyl)acetylamino]butyl}methylcarbamoyl)ethyl]piperidin-4-yl ester ditrifluoroacetic acid salt]","Yes (Bronchoprotective effect present at 24 h, e.g., ≧30% inhibition of the MCh response at 24 h in the rat Einthoven assay (100 μg))"
2,"Cc1ccc(C(=O)Nc2ccc(CC(C)NC[C@H](O)c3ccc(O)c4[nH]c(=O)ccc34)cc2)cc1N(C)C(=O)CCN1CCC(OC(=O)Nc2ccccc2-c2ccccc2)CC1 (stereo partly drawn) [Compound I-41, Biphenyl-2-ylcarbamic acid 1-(2-{[5-(4-{2-[(R)-2-hydroxy-2-(8-hydroxy-2-oxo-1,2-dihydroquinolin-5-yl)-ethylamino]propyl}phenylcarbamoyl)-2-methylphenyl]-methylcarbamoyl}ethyl)piperidin-4-yl ester]",No
3,"CN(C(=O)CCN1CCC(OC(=O)Nc2ccccc2-c2ccccc2)CC1)c1cccc(CC(=O)Nc2cccc(CCNC[C@H](O)c3ccc(O)c4[nH]c(=O)ccc34)c2)c1 [Compound I-62, ditrifluoroacetic acid salt]","Yes (Bronchoprotective effect present at 24 h, e.g., ≧30% inhibition of the MCh response at 24 h in the rat Einthoven assay (100 μg))"
4,"C[C@@H](Cc1cccc(CC(=O)NCCCN(C)C(=O)CCN2CCC(OC(=O)Nc3ccccc3-c3ccccc3)CC2)c1)NC[C@H](O)c1ccc(O)c2[nH]c(=O)ccc12 [Compound I-13, Biphenyl-2-ylcarbamic Acid 1[2-({3-[2-(3-{(S)-2-[(R)-2-Hydroxy-2-(8-hydroxy-2-oxo-1,2-dihydroquinolin-5-yl)ethylamino]propyl}phenyl)acetylaminol]-propyl}methylcarbamoyl)ethyl]piperidin-4-yl Ester Ditrifluoroacetic Acid Salt]","Yes (Bronchoprotective effect present at 24 h, e.g., ≧30% inhibition of the MCh response at 24 h in the rat Einthoven assay (100 μg))"
5,"Cc1cc(CNC[C@H](O)c2ccc(O)c3[nH]c(=O)ccc23)ccc1NC(=O)CCCN(C)C(=O)CCN1CCC(OC(=O)Nc2ccccc2-c2ccccc2)CC1 [Compound I-2, Biphenyl-2-ylcarbamic acid 1-(2-{[3-(4-{[(R)-2-hydroxy-2-(8-hydroxy-2-oxo-1,2-dihydroquinolin-5-yl)ethylamino]methyl}-2-methylphenylcarbamoyl)propyl]methylcarbamoyl}ethyl)piperidin-4-yl ester ditrifluoroacetic acid salt]",No
6,"C[C@H](Cc1cccc(CC(=O)NCCCN(C)C(=O)CCN2CCC(OC(=O)Nc3ccccc3-c3ccccc3)CC2)c1)NC[C@H](O)c1ccc(O)c2[nH]c(=O)ccc12 [Compound I-12, Biphenyl-2-ylcarbamic acid 1-[2-({3-[2-(3-{(R)-2-[(R)-2-hydroxy-2-(8-hydroxy-2-oxo-1,2-dihydroquinolin-5-yl)ethylamino]propyl}phenyl)acetylamino]propyl}methylcarbamoyl)ethyl]piperidin-4-yl ester ditrifluoroacetic acid salt]",No
7,"CN(CCCC(=O)Nc1cccc(CCNC[C@H](O)c2ccc(O)c3[nH]c(=O)ccc23)c1)C(=O)CCN1CCC(OC(=O)Nc2ccccc2-c2ccccc2)CC1 [Compound I-7, Biphenyl-2-ylcarbamic Acid 1-(2-{[3-(3{2-[(R)-2-Hydroxy-2-(8-hydroxy-2-oxy-1,2-dihydroquinolin-5-yl)ethylamino]ethyl}phenylcarbamoyl)-propyl]methylcarbamoyl}ethyl)piperidin-4-yl Ester Ditrifluoroacetic Acid Salt]","Yes (Bronchoprotective effect present at 24 h, e.g., ≧30% inhibition of the MCh response at 24 h in the rat Einthoven assay (100 μg))"

# Same assay, conditions: inhaled or nasal, 100 μg by inhalation, 24 h, bronchoprotective effect present, read-out: Broncho. at 24 h
row,Structure (SMILES),inhibition in vivo at 0.1 mg [%]
1,CN(C(=O)CCN1CCC(OC(=O)Nc2ccccc2-c2ccccc2)CC1)c1cccc(C(=O)Nc2ccc(CNC[C@H](O)c3ccc(O)c4[nH]c(=O)ccc34)cc2)c1 [Compound I-25],> 30
